Source: patent publication EP0942911B1, “BENZOPYRANOPYRROLE AND BENZOPYRANOPYRIDINE ALPHA-1 ADRENERGIC COMPOUNDS” (Abbott Laboratories, priority 1996, dated 1998)
Structures can show the parent of a compound that is named as a salt. Where two headings read alike, the source gives them in different places.

Columns and labels:
Assay in all cases: biochemical
α-1b adrenoreceptor = target: T1, α-1b adrenoreceptor (Mesocricetus auratus, UniProt P18841); format: binding, hamster
T1 sequence (P18841 1-515): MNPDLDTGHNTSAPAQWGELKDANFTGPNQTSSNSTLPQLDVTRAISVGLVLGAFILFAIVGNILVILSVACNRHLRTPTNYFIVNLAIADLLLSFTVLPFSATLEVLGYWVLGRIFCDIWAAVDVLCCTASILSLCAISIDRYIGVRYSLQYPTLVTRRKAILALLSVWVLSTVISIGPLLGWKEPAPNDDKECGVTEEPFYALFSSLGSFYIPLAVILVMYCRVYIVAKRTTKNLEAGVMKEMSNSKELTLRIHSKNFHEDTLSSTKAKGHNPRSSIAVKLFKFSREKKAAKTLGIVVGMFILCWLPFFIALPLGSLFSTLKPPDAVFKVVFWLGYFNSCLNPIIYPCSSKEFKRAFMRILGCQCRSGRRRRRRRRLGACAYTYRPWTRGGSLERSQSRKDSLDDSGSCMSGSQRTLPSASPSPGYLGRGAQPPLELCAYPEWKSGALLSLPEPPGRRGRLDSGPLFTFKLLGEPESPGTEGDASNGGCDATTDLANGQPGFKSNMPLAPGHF
In short: (§1)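 Membranes were prepared from high-density single-cell clones of transfected LTK cells, plus rat submaxillary gland for the α-1A site. Binding was measured by radioligand displacement with scintillation counting.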

α-1a adrenoreceptor = target: T2, α-1a adrenoreceptor (Bos taurus, UniProt P18130); format: binding, bovine
T2 sequence (P18130 1-466): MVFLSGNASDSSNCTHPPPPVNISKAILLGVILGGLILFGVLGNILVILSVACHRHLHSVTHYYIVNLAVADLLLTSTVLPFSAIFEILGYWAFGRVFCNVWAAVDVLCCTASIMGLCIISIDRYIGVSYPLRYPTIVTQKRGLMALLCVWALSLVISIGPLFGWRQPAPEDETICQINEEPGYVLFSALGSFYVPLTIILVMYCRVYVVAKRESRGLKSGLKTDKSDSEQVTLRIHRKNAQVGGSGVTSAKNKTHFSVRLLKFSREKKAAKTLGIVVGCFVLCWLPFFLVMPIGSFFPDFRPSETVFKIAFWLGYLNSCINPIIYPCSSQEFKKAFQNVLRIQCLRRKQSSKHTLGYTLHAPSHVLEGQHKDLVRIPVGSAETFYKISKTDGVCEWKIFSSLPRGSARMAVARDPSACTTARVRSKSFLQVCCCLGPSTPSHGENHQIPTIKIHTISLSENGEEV
In short: as §1

[1] = target: T3, α-1A adrenoreceptor (rat submaxillary gland) (Rattus norvegicus, UniProt P43140); format: binding
T3 sequence (P43140 1-466): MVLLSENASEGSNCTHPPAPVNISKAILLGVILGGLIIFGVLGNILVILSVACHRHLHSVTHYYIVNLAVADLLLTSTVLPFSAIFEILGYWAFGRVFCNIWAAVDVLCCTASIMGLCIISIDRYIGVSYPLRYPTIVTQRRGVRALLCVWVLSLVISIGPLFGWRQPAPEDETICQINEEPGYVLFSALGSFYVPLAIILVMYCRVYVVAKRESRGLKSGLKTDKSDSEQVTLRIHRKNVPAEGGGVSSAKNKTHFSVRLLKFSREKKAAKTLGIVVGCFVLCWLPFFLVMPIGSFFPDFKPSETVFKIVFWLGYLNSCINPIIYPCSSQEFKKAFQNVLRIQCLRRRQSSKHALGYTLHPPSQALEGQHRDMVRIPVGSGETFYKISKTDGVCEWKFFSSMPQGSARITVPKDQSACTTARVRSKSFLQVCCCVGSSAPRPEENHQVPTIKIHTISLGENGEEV
In short: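 Membranes were prepared from rat submaxillary glands as the α-1A adrenoreceptor source. Competition binding followed Greengrass and Bremner, with bound radioligand measured by scintillation counting.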

[2] = [3H]-prazosin radioligand, cloned receptor in LTK cell membranes, read-out: Radioligand Binding (Ki, nM) 1b (Hamster)
[3] = [3H]-prazosin radioligand, cloned receptor in LTK cell membranes, read-out: Radioligand Binding (Ki, nM) 1a (Bovine)
[4] = [3H]-prazosin radioligand, rat submaxillary gland membranes, read-out: Radioligand Binding (Ki, nM) 1A (Rat)
[5] = read-out: Radioligand Binding (Ki, nM) 1b (Hamster)
[6] = read-out: Radioligand Binding (Ki, nM) 1a (Bovine)
[7] = read-out: Radioligand Binding (Ki, nM) 1A (Rat)

Row | Compound | Ki (α-1b adrenoreceptor; [2]) | Ki (α-1a adrenoreceptor; [3]) | Ki [1, 4] | other results
1 | COc1cccc2c1[C@@H]1CN(CCCCn3c(=O)[nH]c4c(sc5c(OC)ccnc54)c3=O)C[C@H]1CO2 [Example 17, 3-[4-((3aS,9bR)-trans-9-Methoxy-1,2,3,3a,4,9b-hexahydro-[1]-benzopyrano[3,4-c]pyrrol-2-yl)butyl]-6-methoxy-pyrido[2',3':4,5]thieno[3,2-d]pyrimidine-2,4(1H,3H)-dione dihydrochloride] | 1.25 nM | 0.068 nM | 0.175 nM | 
2 | COc1cccc2c1[C@@H]1CCN(CCCCn3c(=O)[nH]c4c(sc5ncc(Cl)nc54)c3=O)C[C@H]1CO2 [Example 97, 3-[4-((4aS,10bR)-trans-10-Methoxy-1,3,4,4a,5,10b-hexahydro-2H-[1]-benzopyrano[3,4-c]pyrido-3-yl)butyl]-8-chloro-pyrazino[2',3':4,5]thieno[3,2-d]pyrimidine-2,4(1H,3H)-dione dihydrochloride] | 4.7 nM | 0.097 nM | 0.892 nM | 
3 | COc1cccc2c1[C@@H]1CN(CCCCn3c(=O)[nH]c4c(sc5ncc(-c6ccccc6)nc54)c3=O)C[C@@H]1CO2 [Example 39, 3-[4-((3aR,9bR)-cis-9-Methoxy-1,2,3,3a,4,9b-hexahydro-[1]-benzopyrano[3,4-c]pyrrol-2-yl)butyl]-8-phenyl-pyrazino[2',3':4,5]thieno[3,2-d]pyrimidine-2,4(1H,3H)-dione hydrochloride] | 31.9 nM | 0.226 nM | 0.343 nM | 
4 | COc1cccc2c1[C@@H]1CN(CCCCn3c(=O)[nH]c4c(sc5ccncc54)c3=O)C[C@@H]1CO2 [Example 28, 3-[4-((3aR,9bR)-cis-9-Methoxy-1,2,3,3a,4,9b-hexahydro-[1]-benzopyrano[3,4-c]pyrrol-2-yl)butyl]-pyrido[3',4':4,5]thieno[3,2-d]pyrimidine-2,4(1H,3H)-dione dihydrochloride] | 3.69 nM | 0.092 nM | 0.273 nM | 
5 | COc1cccc2c1OC[C@H]1CN(CCn3c(=O)[nH]c4c(sc5ccccc54)c3=O)C[C@@H]21.Cl (racemic) [Example 67, 3-[2-((±)-cis-6-Methoxy-1,2,3,3a,4,9b-hexahydro-[1]-benzopyrano[3,4-c]pyrrol-2-yl)ethyl]-[1]benzthieno[3,2-d]pyrimidine-2,4(1H,3H)-dione hydrochloride] |  |  |  | Ki (α-1b adrenoreceptor; [5]): 248 nM; Ki (α-1a adrenoreceptor; [6]): 77.2 nM; Ki [1, 7]: 116 nM
6 | COc1cccc2c1[C@@H]1CCN(CCCCn3c(=O)[nH]c4c(sc5cccnc54)c3=O)C[C@H]1CO2 [Example 95, 3-[4-((4aS,10bR)-trans-10-Methoxy-1,3,4,4a,5,10b-hexahydro-2H-[1]-benzopyrano[3,4-c]pyrido-3-yl)butyl]-pyrido[2',3':4,5]thieno[3,2-d]pyrimidine-2.4(1H,3H)-dione dihydrochloride] | 21.6 nM | 1.8 nM | 8.83 nM | 
7 | COc1cnc2sc3c(=O)n(CCCCN4CC5COc6cccc(OC)c6[C@@H]5C4)c(=O)[nH]c3c2n1.Cl (stereo in doubt) [Example 43, 3-[4-((3aS,9bR)-trans-9-Methoxy-1,2,3,3a,4,9b-hexahydro-[1]-benzopyrano[3,4-c]pyrrol-2-yl)butyl]-8-methoxy-pyrazino[2',3':4,5]thieno[3,2-d]pyrimidine-2,4(1H,3H)-dione hydrochloride] | 1.49 nM | 0.037 nM | 0.114 nM | 
8 | COc1cccc2c1[C@@H]1CN(CCCCn3c(=O)[nH]c4c(sc5nc(C)ccc54)c3=O)C[C@H]1CO2 [Example 45, 3-[4-((3aS,9bR)-trans-9-Methoxy-1,2,3,3a,4,9b-hexahydro-[1]-benzopyrano[3,4-c]pyrrol-2-yl)butyl]-7-methyl-pyrido[3',2':4,5]thieno[3,2-d]pyrimidine-2,4(1H,3H)-dione hydrochloride] | 1.34 nM | 0.066 nM | 0.125 nM | 
9 | COc1cccc2c1[C@H]1CN(CCCCn3c(=O)[nH]c4c(sc5nccnc54)c3=O)C[C@@H]1CO2.Cl.Cl (racemic) [Example 74, 3-[4-((±)-trans-9-Methoxy-1,2,3,3a,4,9b-hexahydro-[1]-benzopyrano[3,4-c]pyrrol-2-yl)butyl]-pyrazino[2',3':4,5]thieno[3,2-d]pyrimidine-2,4(1H,3H)-dione dihydrochloride] |  |  |  | Ki (α-1b adrenoreceptor; [5]): 14.3 nM; Ki (α-1a adrenoreceptor; [6]): 1.53 nM; Ki [1, 7]: 3.29 nM
10 | COc1cccc2c1[C@@H]1CN(CCCCn3c(=O)[nH]c4c(sc5c(OC)ccnc54)c3=O)C[C@@H]1CO2 [Example 18, 3-[4-((3aR,9bR)-cis-9-Methoxy-1,2,3,3a,4,9b-hexahydro[1]-benzopyrano[3,4-c]pyrrol-2-yl)butyl]-6-methoxy-pyrido[2',3':4,5]thieno[3,2-d]pyrimidine-2,4(1H,3H)-dione dihydrochloride] | 5.06 nM | 0.069 nM | 0.284 nM | 
11 | COc1cccc2c1[C@@H]1CN(CCCCn3c(=O)[nH]c4c(sc5ncccc54)c3=O)C[C@H]1CO2 [Example 44, 3-[4-((3aS,9bR)-trans-9-Methoxy-1,2,3,3a,4,9b-hexahydro-[1]-benzopyrano[3,4-c]pyrrol-2-yl)butyl]-pyrido[3',2':4,5]thieno[3,2-d]pyrimidine-2,4(1H,3H)-dione hydrochloride] | 0.622 nM | 0.043 nM | 0.043 nM | 
12 | O=c1[nH]c2c(sc3cccnc32)c(=O)n1CCCCN1C[C@@H]2COc3ccccc3[C@@H]2C1 (racemic) [Example 70, 3-[4-((±)-cis-1,2,3,3a,4,9b-hexahydro-[1]-benzopyrano[3,4-c]pyrrol-2-yl)butyl]-pyrido[2',3':4,5]thieno[3,2-d]pyrimidine-2,4(1H,3H)-dione dihydrochloride] |  |  |  | Ki (α-1b adrenoreceptor; [5]): 0.724 nM; Ki (α-1a adrenoreceptor; [6]): 0.082 nM; Ki [1, 7]: 0.17 nM
13 | COc1cccc2c1[C@@H]1CN(CCCCn3c(=O)[nH]c4c(sc5nc(Cl)ccc54)c3=O)C[C@H]1CO2 [Example 47, 3-[4-((3aS,9bR)-trans-9-Methoxy-1,2,3,3a,4,9b-hexahydro-[1]-benzopyrano[3,4-c]pyrrol-2-yl)butyl]-7-chloro-pyrido[3',2':4,5]thieno[3,2-d]pyrimidine-2,4(1H,3H)-dione hydrochloride] | 2.4 nM | 0.038 nM | 0.245 nM | 
14 | COc1cccc2c1[C@@H]1CN(CCCCn3c(=O)[nH]c4c(sc5ccncc54)c3=O)C[C@H]1CO2 [Example 41, 3-[4-((3aS,9bR)-trans-9-Methoxy-1,2,3,3a,4,9b-hexahydro-[1]-benzopyrano[3,4-c]pyrrol-2-yl)butyl]-pyrido[3',4':4,5]thieno[3,2-d]pyrimidine-2,4(1H,3H)-dione dihydrochloride] | 0.603 nM | 0.031 nM | 0.069 nM | 
15 | COc1cc2nc(N3CCN(C(=O)C4COc5ccccc5O4)CC3)nc(N)c2cc1OC (stereo not drawn) [Doxazosin, doxazosin, reference compound] |  |  |  | Ki (α-1b adrenoreceptor): 0.793 nM; Ki (α-1a adrenoreceptor): 0.912 nM; Ki [1]: 0.423 nM
16 | COc1cccc2c1[C@@H]1CN(CCCCn3c(=O)[nH]c4c(sc5c(Cl)nccc54)c3=O)C[C@H]1CO2 [Example 54, 3-[4-((3aS,9bR)-trans-9-Methoxy-1,2,3,3a,4,9b-hexahydro-[1]-benzopyrano[3,4-c]pyrrol-2-yl)butyl]-6-chloro-pyrido[4',3':4,5]thieno[3,2-d]pyrimidine-2,4(1H,3H)-dione] | 1 nM | 0.187 nM | 0.077 nM | 
